Molecular target: T1, human recombinant full-length fatty acid synthase (FASN) (Homo sapiens, UniProt P49327)
T1 construct: 40 nM human recombinant full-length fatty acid synthase (produced in-house in SF9 cells); made in house; host or cells: SF9 insect cells
Test: Biochemical activity testing of human fatty acid synthase FASN (NADPH fluorescence intensity enzyme assay)
Details: human recombinant FASN, enzyme assay
Source text: Biochemical Activity Testing of Human Fatty Acid Synthase FASN
Fatty acid synthase FASN is a multifunctional enzyme with seven catalytic activities thereby synthesising long chain fatty acids especially palmitoyl-CoA in the presence of co-factor NADPH starting from the substrates acetyl-CoA and malonyl-CoA. The reductive synthesis is realized by the oxidation of NADPH to NADP. Since NADPH has a high fluorescence intensity quantum yield compared to NADP with excitation at 340 nm and emission at 460 nm, the reaction can be monitored via the decrease in fluorescence intensity. The biochemical FASN activity testing was performed as 384 well two-time-point kinetic fluorescence intensity assay format in Greiner low volume medium binding 384-well black microtiter plates in a total assay volume of 8 μl and was used for high throughput screen. In each well 3 μl 40 nM human recombinant full-length fatty acid synthase (produced in-house in SF9 cells) were dispensed in the following assay buffer: 50 mM potassium phosphate buffer pH 7.0, 0.005% (w/v) BSA, 2 mM Glutathione, 0.02% Tween-20. Then 2 μl of 200 μM NADPH in assay buffer were added, followed by the addition of the test compounds in 10 dilution concentrations starting with 30 μM (final concentration) to get a final DMSO content of 1% (v/v). The mixture was incubated for at least 15 min at room temperature. After the pre-incubation the enzymatic reaction was started by the addition of 2 μl substrate solution (80 μM acetyl-CoA, 240 μM malonyl-CoA). A first fluorescence intensity measurement (time point one) was performed with an Envision multimode reader (Perkin Elmer LAS Germany GmbH) at excitation wavelength 340 nm (lamp mode) and emission wavelength 460 nm. The reaction was incubated for 30 minutes at room temperature. After this the fluorescence intensity was measured again in the Envision using the same parameters as described above (second time point measurement). The data were analysed by subtracting the first time point measurement value from the second time point measurement value (after the enzymatic reaction). The differences of the emission signals were determined. These reflect directly the conversion rate of NADPH. The full value used was the inhibitor-free reaction. A pharmacological zero value was used like GSK837149A (Sigma-Aldrich) in a final concentration of 5-10 μM. The inhibitory values (IC50) were determined using either the program Symyx Assay Explorer® or Condosseo® from GeneData.

T1 sequence (P49327 whole entry): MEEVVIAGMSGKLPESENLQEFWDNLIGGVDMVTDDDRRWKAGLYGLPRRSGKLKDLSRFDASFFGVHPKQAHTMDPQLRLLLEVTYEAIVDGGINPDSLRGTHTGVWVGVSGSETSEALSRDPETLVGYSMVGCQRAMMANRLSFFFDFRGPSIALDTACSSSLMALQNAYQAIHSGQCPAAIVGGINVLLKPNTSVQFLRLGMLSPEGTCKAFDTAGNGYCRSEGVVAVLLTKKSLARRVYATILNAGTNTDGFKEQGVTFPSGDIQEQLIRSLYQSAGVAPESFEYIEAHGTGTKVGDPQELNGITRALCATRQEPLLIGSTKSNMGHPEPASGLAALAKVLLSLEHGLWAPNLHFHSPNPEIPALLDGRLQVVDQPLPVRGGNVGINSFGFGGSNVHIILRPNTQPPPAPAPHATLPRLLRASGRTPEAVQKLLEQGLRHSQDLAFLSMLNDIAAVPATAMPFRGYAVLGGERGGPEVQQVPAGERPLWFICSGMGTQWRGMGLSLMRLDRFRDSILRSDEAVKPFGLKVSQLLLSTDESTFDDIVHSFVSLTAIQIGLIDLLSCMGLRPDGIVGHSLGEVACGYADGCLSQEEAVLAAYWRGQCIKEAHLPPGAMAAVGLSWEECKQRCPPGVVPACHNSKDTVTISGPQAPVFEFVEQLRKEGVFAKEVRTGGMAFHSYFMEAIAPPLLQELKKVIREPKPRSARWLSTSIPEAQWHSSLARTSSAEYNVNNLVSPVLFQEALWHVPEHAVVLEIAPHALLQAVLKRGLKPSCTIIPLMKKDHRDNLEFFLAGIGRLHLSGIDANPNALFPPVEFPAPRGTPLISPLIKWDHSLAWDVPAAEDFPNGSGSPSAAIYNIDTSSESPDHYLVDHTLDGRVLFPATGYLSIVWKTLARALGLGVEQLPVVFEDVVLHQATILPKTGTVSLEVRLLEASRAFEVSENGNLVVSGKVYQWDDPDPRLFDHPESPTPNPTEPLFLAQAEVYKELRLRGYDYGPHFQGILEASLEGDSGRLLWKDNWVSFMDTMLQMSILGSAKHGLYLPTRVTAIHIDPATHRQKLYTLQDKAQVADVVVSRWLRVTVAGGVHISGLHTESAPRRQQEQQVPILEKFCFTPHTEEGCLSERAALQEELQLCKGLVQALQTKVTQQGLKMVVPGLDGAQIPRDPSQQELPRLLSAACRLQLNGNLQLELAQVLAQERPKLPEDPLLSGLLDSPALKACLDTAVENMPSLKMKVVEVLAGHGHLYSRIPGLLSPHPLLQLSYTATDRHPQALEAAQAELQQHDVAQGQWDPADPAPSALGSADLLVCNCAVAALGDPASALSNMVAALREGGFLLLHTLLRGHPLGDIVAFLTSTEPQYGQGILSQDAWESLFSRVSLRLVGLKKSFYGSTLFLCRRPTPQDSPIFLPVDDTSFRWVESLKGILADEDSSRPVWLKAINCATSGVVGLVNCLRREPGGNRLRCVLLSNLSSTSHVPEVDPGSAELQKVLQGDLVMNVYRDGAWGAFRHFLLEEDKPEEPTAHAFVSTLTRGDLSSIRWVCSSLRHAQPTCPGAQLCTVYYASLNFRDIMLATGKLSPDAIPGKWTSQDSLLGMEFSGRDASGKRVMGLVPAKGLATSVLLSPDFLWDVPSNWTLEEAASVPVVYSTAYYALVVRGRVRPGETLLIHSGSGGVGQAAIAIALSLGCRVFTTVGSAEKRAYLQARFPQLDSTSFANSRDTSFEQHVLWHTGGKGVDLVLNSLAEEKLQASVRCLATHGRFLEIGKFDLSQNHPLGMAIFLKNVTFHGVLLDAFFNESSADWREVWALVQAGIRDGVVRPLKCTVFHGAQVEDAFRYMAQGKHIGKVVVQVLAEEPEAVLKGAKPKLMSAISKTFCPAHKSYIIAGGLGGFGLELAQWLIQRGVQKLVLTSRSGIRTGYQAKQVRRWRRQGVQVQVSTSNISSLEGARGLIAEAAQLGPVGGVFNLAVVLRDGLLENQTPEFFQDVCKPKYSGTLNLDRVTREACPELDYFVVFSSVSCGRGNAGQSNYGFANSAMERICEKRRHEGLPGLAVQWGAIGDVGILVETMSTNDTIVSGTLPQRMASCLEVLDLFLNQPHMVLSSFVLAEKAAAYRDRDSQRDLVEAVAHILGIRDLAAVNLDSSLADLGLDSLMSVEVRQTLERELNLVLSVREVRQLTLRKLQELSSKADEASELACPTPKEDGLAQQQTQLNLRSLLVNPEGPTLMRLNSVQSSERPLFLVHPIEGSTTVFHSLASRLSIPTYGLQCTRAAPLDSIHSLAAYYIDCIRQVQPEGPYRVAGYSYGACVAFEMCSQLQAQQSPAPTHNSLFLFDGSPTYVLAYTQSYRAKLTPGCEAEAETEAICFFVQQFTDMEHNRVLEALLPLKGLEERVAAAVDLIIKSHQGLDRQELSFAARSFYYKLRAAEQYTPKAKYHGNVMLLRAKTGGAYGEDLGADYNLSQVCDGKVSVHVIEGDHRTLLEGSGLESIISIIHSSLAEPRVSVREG

| IC50 | SMILES |
| --- | --- |
| < 300 nM | CCNC(=O)[C@H]1CC[C@@H](n2cnnc2-c2ccc(-c3nc4ccccc4s3)cc2)C1 [Compound A33, (1S,3R)-3-[3-(4-benzothiazol-2-yl-phenyl)-[1,2,4]triazol-4-yl]-cyclopentanecarboxylic acid ethylamide] |
| < 300 nM | CCNC(=O)[C@H]1CC[C@@H](n2cnnc2-c2ccc(-c3cccc4[nH]ncc34)cc2)C1 [Compound A35, (1S,3R)-3-{3-[4-(1H-indazol-4-yl)-phenyl]-[1,2,4]triazol-4-yl}-cyclopentanecarboxylic acid ethylamide] |
| < 300 nM | CCC(=O)N[C@H]1CC[C@@H](n2cnnc2-c2ccc(-c3nc4ccccc4o3)cc2)C1 [Compound A37, N-{(1S,3R)-3-[3-(4-benzoxazol-2-yl-phenyl)-[1,2,4]triazol-4-yl]-cyclopentyl}-propionamide] |
| < 300 nM | CCC(=O)N[C@H]1CC[C@@H](n2cnnc2-c2ccc(-c3ccc(Cl)cc3)cc2)C1 [Compound A39, N-{(1S,3R)-3-[3-(4′-chloro-biphenyl-4-yl)-[1,2,4]triazol-4-yl]-cyclopentyl}-propionamide] |
| < 300 nM | CCC(=O)N[C@H]1CC[C@@H](n2cnnc2-c2ccc(-c3ccc(C#N)cc3)cc2)C1 [Compound A40, N-{(1S,3R)-3-[3-(4′-cyano-biphenyl-4-yl)-[1,2,4]triazol-4-yl]-cyclopentyl}-propionamide] |
| < 300 nM | CCC(=O)N[C@H]1CC[C@@H](n2cnnc2-c2ccc(-c3cccc4[nH]ncc34)cc2)C1 [Compound A42, N-((1S,3R)-3-{3-[4-(1H-indazol-4-yl)-phenyl]-[1,2,4]triazol-4-yl}-cyclopentyl)-propionamide] |
| < 300 nM | CCC(=O)N[C@H]1CC[C@@H](n2cnnc2-c2ccc(-c3ccc4ncsc4c3)cc2)C1 [Compound A43, N-{(1S,3R)-3-[3-(4-benzothiazol-6-yl-phenyl)-[1,2,4]triazol-4-yl]-cyclopentyl}-propionamide] |
| < 300 nM | CCC(=O)N[C@H]1CC[C@@H](n2cnnc2-c2ccc(-c3ccc4cc[nH]c4c3)cc2)C1 [Compound A44, N-((1S,3R)-3-{3-[4-(1H-indol-6-yl)-phenyl]-[1,2,4]triazol-4-yl}-cyclopentyl)-propionamide] |
| < 300 nM | CCC(=O)N[C@H]1CC[C@@H](n2nncc2-c2ccc(-c3ccc(C#N)cc3)cc2)C1 [Compound A58, N-{(1S,3R)-3-[5-(4′-Cyano-biphenyl-4-yl)-[1,2,3]triazol-1-yl]-cyclopentyl}-propionamide] |
| < 300 nM | CCC(=O)N[C@H]1CC[C@@H](n2nncc2-c2ccc(-c3ccc4cc[nH]c4c3)cc2)C1 [Compound A59, N-((1S,3R)-3-{5-[4-(1H-Indol-6-yl)-phenyl]-[1,2,3]triazol-1-yl}-cyclopentyl)-propionamide] |
| < 300 nM | CCC(=O)N[C@H]1CC[C@@H](n2nncc2-c2ccc(-c3ccc4ncsc4c3)cc2)C1 [Compound A60, N-{(1S,3R)-3-[5-(4-Benzothiazol-6-yl-phenyl)-[1,2,3]triazol-1-yl]-cyclopentyl}-propionamide] |
| < 300 nM | CCC(=O)N[C@H]1CC[C@@H](n2nncc2-c2ccc(-c3ccc4c(cnn4C)c3)cc2)C1 [Compound A61, N-((1S,3R)-3-{5-[4-(1-Methyl-1H-indazol-5-yl)-phenyl]-[1,2,3]triazol-1-yl}-cyclopentyl)-propionamide] |
| < 300 nM | CCC(=O)N[C@H]1CC[C@@H](n2nncc2-c2ccc(-c3ccc(C#N)cc3F)cc2)C1 [Compound A62, N-{(1S,3R)-3-[5-(4′-Cyano-2′-fluoro-biphenyl-4-yl)-[1,2,3]triazol-1-yl]-cyclopentyl}-propionamide] |
| < 300 nM | CCC(=O)N[C@H]1CC[C@@H](n2nncc2-c2ccc(-c3ccc4cnn(C)c4c3)cc2)C1 [Compound A63, N-((1S,3R)-3-{5-[4-(1-Methyl-1H-indazol-6-yl)-phenyl]-[1,2,3]triazol-1-yl}-cyclopentyl)-propionamide] |
| < 300 nM | CCC(=O)N[C@H]1CC[C@@H](n2nncc2-c2ccc(-c3ccc(-c4cnn(C)c4)cc3)cc2)C1 [Compound A64, N-((1S,3R)-3-{5-[4′-(1-Methyl-1H-pyrazol-4-yl)-biphenyl-4-yl]-[1,2,3]triazol-1-yl}-cyclopentyl)-propionamide] |
| < 300 nM | CCNC(=O)[C@H]1CC[C@@H](n2cnnc2-c2ccc(-c3ccc4ncsc4c3)cc2)C1 [Compound A65, (1S,3R)-3-[3-(4-Benzothiazol-6-yl-phenyl)-[1,2,4]triazol-4-yl]-cyclopentanecarboxylic acid ethylamide] |
| < 300 nM | O=C(N[C@H]1CC[C@@H](n2nncc2-c2ccc(-c3nc4ccccc4o3)cc2)C1)C1CC1 [Compound A66, Cyclopropanecarboxylic acid {(1S,3R)-3-[5-(4-benzooxazol-2-yl-phenyl)-[1,2,3]triazol-1-yl]-cyclopentyl}-amide] |
| 300 to 3000 nM | O=C(CC1CCCC1)N[C@H]1CC[C@@H](n2nncc2-c2ccc(-c3nc4ccccc4o3)cc2)C1 [Compound A67, N-{(1S,3R)-3-[5-(4-Benzoxazol-2-yl-phenyl)-[1,2,3]triazol-1-yl]-cyclopentyl}-2-cyclopentyl-acetamide] |
| 300 to 3000 nM | O=C(N[C@H]1CC[C@@H](n2nncc2-c2ccc(-c3nc4ccccc4o3)cc2)C1)[C@H]1CCCO1 [Compound A68, (R)-Tetrahydro-furan-2-carboxylic acid {(1S,3R)-3-[5-(4-benzooxazol-2-yl-phenyl)-[1,2,3]triazol-1-yl]-cyclopentyl}-amide] |
| < 300 nM | O=C(N[C@H]1CC[C@@H](n2nncc2-c2ccc(-c3nc4ccccc4o3)cc2)C1)[C@@H]1CCCO1 [Compound A69, (S)-Tetrahydro-furan-2-carboxylic acid {(1S,3R)-3-[5-(4-benzooxazol-2-yl-phenyl)-[1,2,3]triazol-1-yl]-cyclopentyl}-amide] |
| < 300 nM | CCC(=O)N[C@H]1CC[C@@H](n2nncc2-c2ccc(-c3cnc4ccccc4c3)cc2)C1 [Compound A70, N-{(1S,3R)-3-[5-(4-Quinolin-3-yl-phenyl)-[1,2,3]triazol-1-yl]-cyclopentyl}-propionamide] |
| < 300 nM | CCC(=O)N[C@H]1CC[C@@H](n2nncc2-c2ccc(-c3ccc4c(ccn4C)c3)cc2)C1 [Compound A71, N-((1S,3R)-3-{5-[4-(1-Methyl-1H-indol-5-yl)-phenyl]-[1,2,3]triazol-1-yl}-cyclopentyl)-propionamide] |
| < 300 nM | CCC(=O)N[C@H]1CC[C@@H](n2nncc2-c2ccc(-c3ccc4cn[nH]c4c3)cc2)C1 [Compound A72, N-((1S,3R)-3-{5-[4-(1H-Indazol-6-yl)-phenyl]-[1,2,3]triazol-1-yl}-cyclopentyl)-propionamide] |
| < 300 nM | CCC(=O)N[C@H]1CC[C@@H](n2nncc2-c2ccc(-c3ccc4[nH]cnc4c3)cc2)C1 [Compound A73, N-((1S,3R)-3-{5-[4-(1H-Benzimidazol-5-yl)-phenyl]-[1,2,3]triazol-1-yl}-cyclopentyl)-propionamide] |
| < 300 nM | CCC(=O)N[C@H]1CC[C@@H](n2nncc2-c2ccc(-c3ccc4[nH]ncc4c3)cc2)C1 [Compound A74, N-((1S,3R)-3-{5-[4-(1H-Indazol-5-yl)-phenyl]-[1,2,3]triazol-1-yl}-cyclopentyl)-propionamide] |
| < 300 nM | CCC(=O)N[C@H]1CC[C@@H](n2nncc2-c2ccc(-c3ccc(Cl)c(F)c3)cc2)C1 [Compound A75, N-{(1S,3R)-3-[5-(4′-Chloro-3′-fluoro-biphenyl-4-yl)-[1,2,3]triazol-1-yl]-cyclopentyl}-propionamide] |
| < 300 nM | CCC(=O)N[C@H]1CC[C@@H](n2nncc2-c2ccc(-c3ccc(-n4cccn4)cc3)cc2)C1 [Compound A76, N-{(1S,3R)-3-[5-(4′-Pyrazol-1-yl-biphenyl-4-yl)-[1,2,3]triazol-1-yl]-cyclopentyl}-propionamide] |
| < 300 nM | CCC(=O)N[C@H]1CC[C@@H](n2nncc2-c2ccc(-c3ccc4c(c3)N(C)C(=O)C4)cc2)C1 [Compound A77, N-((1S,3R)-3-{5-[4-(1-Methyl-2-oxo-2,3-dihydro-1H-indol-6-yl)-phenyl]-[1,2,3]triazol-1-yl}-cyclopentyl)-propionamide] |
| < 300 nM | CCC(=O)N[C@H]1CC[C@@H](n2nncc2-c2ccc(-c3cc4cn[nH]c4cc3C)cc2)C1 [Compound A78, N-((1S,3R)-3-{5-[4-(6-Methyl-1H-indazol-5-yl)-phenyl]-[1,2,3]triazol-1-yl}-cyclopentyl)-propionamide] |
| < 300 nM | CCC(=O)N[C@H]1CC[C@@H](n2nncc2-c2ccc(-c3ccc4c(c3)CC(=O)N4)cc2)C1 [Compound A79, N-((1S,3R)-3-{5-[4-(2-Oxo-2,3-dihydro-1H-indol-5-yl)-phenyl]-[1,2,3]triazol-1-yl}-cyclopentyl)-propionamide] |

From patent US9718785B2, “1,3-Disubstituted cyclopentane derivatives” (MERCK PATENT GMBH, priority 2013, dated 2017)
